According to PMC10649961, “Novel Mitochondria-Targeted Amphiphilic Aminophosphonium Salts and Lipids Nanoparticles: Synthesis, Antitumor Activity and Toxicity” (Nanomaterials, 2023):
Read-outs that look alike come from different tables or passages of the source.

Experiments:
[1] = tested on: Staphylococcus aureus ATCC 6538 P FDA 209P; experiment: Antimicrobial activity, serial microdilutions, Sa; type: cell-based; conditions: Staphylococcus aureus; for MIC: read-out: Minimum Inhibitory Concentration (MIC); for MBC: read-out: Minimum bactericidal and fungicidal concentrations (MBC, MFC)
How it was run: (§1)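 Compounds were serially diluted in broth: Mueller-Hinton for the bacterial strains, Sabouraud for the yeast. Each determination was done in triplicate.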

[2] = tested on: Bacillus cereus ATCC 10702 NCTC 8035; experiment: Antimicrobial activity, serial microdilutions, Bc; type: cell-based; set-up: key to Minimum bactericidal and fungicidal concentrations (MBC, MFC): – means non-active; conditions: for MIC / MBC: Bacillus cereus; for MIC / Minimum bactericidal and fungicidal concentrations (MBC, MFC): Bc; for MIC: read-out: Minimum Inhibitory Concentration (MIC); for MBC: read-out: Minimum bactericidal and fungicidal concentrations (MBC, MFC)
How it was run: (§2)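 Serial microdilution in Mueller-Hinton broth for bacteria and Sabouraud broth for yeast. MRSA-1 is a clinical methicillin-resistant S. aureus isolate from a chronic tonsillitis patient. Run in triplicate.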

[3] = tested on: Enterococcus faecalis ATCC 29212; experiment: Antimicrobial activity, serial microdilutions, Ef; type: cell-based; set-up: key to Minimum Inhibitory Concentration (MIC) / Minimum bactericidal and fungicidal concentrations (MBC, MFC): – means non-active; conditions: for MIC: ATCC29212, read-out: Minimum Inhibitory Concentration (MIC)
How it was run: as §1

[4] = tested on: MRSA-1; experiment: Antimicrobial activity, serial microdilutions, MRSA-1; type: cell-based, S. aureus; conditions: Staphylococcus aureus; for MIC: read-out: Minimum Inhibitory Concentration (MIC); for MBC: read-out: Minimum bactericidal and fungicidal concentrations (MBC, MFC)
How it was run: as §2

[5] = tested on: MRSA-2; experiment: Antimicrobial activity, serial microdilutions, MRSA-2; type: cell-based, S. aureus; conditions: Staphylococcus aureus; for MIC: read-out: Minimum Inhibitory Concentration (MIC); for MBC: read-out: Minimum bactericidal and fungicidal concentrations (MBC, MFC)
How it was run: as §1

[6] = tested on: Escherichia coli ATCC 25922; experiment: Antimicrobial activity, serial microdilutions, Ec; type: cell-based; set-up: key to Minimum Inhibitory Concentration (MIC) / Minimum bactericidal and fungicidal concentrations (MBC, MFC): – means non-active; conditions: for MIC / MBC: Escherichia coli; for MIC: ATCC25922, read-out: Minimum Inhibitory Concentration (MIC); for MBC: ATCC25922, read-out: Minimum bactericidal and fungicidal concentrations (MBC, MFC)
How it was run: as §2

[7] = tested on: Pseudomonas aeruginosa ATCC 9027; experiment: Antimicrobial activity, serial microdilutions, Pa; type: cell-based; set-up: key to Minimum Inhibitory Concentration (MIC) / Minimum bactericidal and fungicidal concentrations (MBC, MFC): – means non-active; conditions: for MIC: ATCC9027, read-out: Minimum Inhibitory Concentration (MIC)
How it was run: as §2

[8] = tested on: Candida albicans ATCC 10231; experiment: Antimicrobial activity, serial microdilutions, Ca; type: cell-based; set-up: key to Minimum Inhibitory Concentration (MIC) / Minimum bactericidal and fungicidal concentrations (MBC, MFC): – means non-active; conditions: for Minimum Inhibitory Concentration (MIC) / Minimum bactericidal and fungicidal concentrations (MBC, MFC): Ca
How it was run: as §2

[9] = tested on: M-HeLa
[10] = tested on: MCF-7
[11] = tested on: HuTu 80
[12] = tested on: PANC-1
[13] = tested on: A549
[14] = tested on: PC3
[15] = tested on: T98G
[16] = tested on: Hep G2
[17] = tested on: SK-OV-3
[18] = tested on: DU-145
[19] = tested on: M-HeLa; experiment: cells; conditions: Homo sapiens, 48 h, read-out: Cytotoxic Effects (IC50)
[20] = tested on: MCF-7; experiment: cells; conditions: Homo sapiens, MCF7, 48 h, read-out: Cytotoxic Effects (IC50)
[21] = tested on: HuTu 80; experiment: cells; conditions: Homo sapiens, HuTu80, 48 h, read-out: Cytotoxic Effects (IC50)
[22] = tested on: PANC-1; experiment: cells; conditions: Homo sapiens, PANC-1, 48 h, read-out: Cytotoxic Effects (IC50)
[23] = tested on: A549; experiment: cells; conditions: Homo sapiens, A549, 48 h, read-out: Cytotoxic Effects (IC50)
[24] = tested on: T98G; experiment: cells; conditions: Homo sapiens, 48 h, read-out: Cytotoxic Effects (IC50)
[25] = tested on: Hep G2; experiment: cells; conditions: Homo sapiens, HepG2, 48 h, read-out: Cytotoxic Effects (IC50)
[26] = tested on: SK-OV-3; experiment: cells; conditions: Homo sapiens, SK-OV-3, 48 h, read-out: Cytotoxic Effects (IC50)
[27] = tested on: DU-145; experiment: cells; conditions: Homo sapiens, DU-145, 48 h, read-out: Cytotoxic Effects (IC50), DU-145, MTT assay, 48 h
[28] = calculated relative to the cell line Chang liver (b)
[29] = reference normal cell line not marked at the place (ns cells)
[30] = calculated relative to the cell line WI38 (a)

Row | Compound | MIC [1] | MBC [1] | MIC [2] | MIC ([3]; Enterococcus faecalis) | MIC [4] | MBC [4] | MIC [5] | MBC [5] | IC50 [19] | IC50 [20] | IC50 [21] | IC50 [22] | IC50 [23] | IC50 [24] | IC50 [25] | IC50 [26] | IC50 [27] | Minimum bactericidal and fungicidal concentrations (MBC, MFC) [3] | Minimum bactericidal and fungicidal concentrations (MBC, MFC) [7] | Minimum Inhibitory Concentration (MIC) [8] | also measured
1 | CCCCCCCCCC[P+](N(CC)CC)(N(CC)CC)N(CC)CC [4d, Decyltris(diethylamino)phosphonium iodide] | 1.9 ± 0.1 µM | 31.3 ± 2.5 µM | 0.9 ± 0.07 µM | 15.6 ± 1.3 µM | 0.9 ± 0.07 µM | 62.5 ± 5.4 µM | 1.9 ± 0.1 µM | 250 ± 18 µM | 1.7 ± 0.1 µM | 2.1 ± 0.2 µM | 2.8 ± 0.2 µM | 1.6 ± 0.1 µM | 18.4 ± 1.3 µM | 1.8 ± 0.2 µM | 2.3 ± 0.1 µM | 10 ± 0.9 µM | 1.2 ± 0.1 µM |  |  |  | MBC [2]: 250 ± 22 µM; MBC ([3]; Enterococcus faecalis, ATCC29212, read-out: Minimum bactericidal and fungicidal concentrations (MBC, MFC)): > 500 µM; MIC [6]: 125 ± 9 µM; MBC [6]: 250 ± 19 µM; MIC ([7]; Pseudomonas aeruginosa): 500 ± 47 µM; MBC ([7]; Pseudomonas aeruginosa, ATCC9027, read-out: Minimum bactericidal and fungicidal concentrations (MBC, MFC)): 500 ± 48 µM; MIC ([8]; Candida albicans, ATCC10231, read-out: Minimum Inhibitory Concentration (MIC)): 125 ± 11 µM; MBC ([8]; Candida albicans, ATCC10231, read-out: Minimum bactericidal and fungicidal concentrations (MBC, MFC)): 250 ± 18 µM; selectivity index (SI) [9, 28]: 7.1; selectivity index (SI) [10, 28]: 5.7; selectivity index (SI) [11, 28]: 4.3; selectivity index (SI) [12, 28]: 7.5; selectivity index (SI) [13, 29]: ns (ns—no selectivity); selectivity index (SI) [14, 28]: 1.6; selectivity index (SI) [15, 28]: 6.7; selectivity index (SI) [16, 28]: 5.2; selectivity index (SI) [17, 28]: 1.2; selectivity index (SI) [18, 28]: 10
2 | CCCCCCCC[P+](c1ccccc1)(c1ccccc1)c1ccccc1 [compound 8, Octyltriphenylphosphonium iodide, reference compound] | 0.9 ± 0.07 µM | 62.5 ± 5.3 µM | 0.9 ± 0.07 µM | 15.6 ± 1.2 µM | 1.9 ± 0.1 µM | 15.6 ± 1.2 µM | 3.9 ± 0.3 µM | 15.6 ± 1.3 µM | 0.45 ± 0.04 µM | 4.2 ± 0.3 µM | 0.09 ± 0.006 µM | 0.3 ± 0.02 µM | 8.7 ± 0.7 µM | 0.6 ± 0.05 µM | 1.6 ± 0.1 µM | 9.8 ± 0.7 µM | 0.4 ± 0.03 µM | – | – | – | MBC [2]: 500 ± 47 µM; Minimum bactericidal and fungicidal concentrations (MBC, MFC) [6]: –; MIC [6]: 500 ± 47 µM; Minimum Inhibitory Concentration (MIC) [7]: –; Minimum bactericidal and fungicidal concentrations (MBC, MFC) [8]: –; selectivity index (SI) [9, 30]: 20; selectivity index (SI) [10, 30]: 2.2; selectivity index (SI) [11, 30]: 102; selectivity index (SI) [12, 30]: 31; selectivity index (SI) [13, 30]: 1.1; selectivity index (SI) [14, 30]: 23; selectivity index (SI) [15, 30]: 15; selectivity index (SI) [16, 30]: 5.8; selectivity index (SI) [17, 29]: ns (ns—no selectivity); selectivity index (SI) [18, 30]: 23
3 | CCCCCC[P+](c1ccccc1)(c1ccccc1)N(CC)CC [6a, (Diethylamino)(hexyl)diphenylphosphonium iodide] | 62.5 ± 5.5 µM | 125 ± 10 µM | 31.3 ± 2.3 µM | 125 ± 11 µM | 62.5 ± 5.3 µM | 500 ± 47 µM | 62.5 ± 5.6 µM | 62.5 ± 5.6 µM | 5.8 ± 0.4 µM | 17 ± 1.3 µM | 0.1 ± 0.007 µM | 5.5 ± 0.4 µM | 48.2 ± 3.4 µM | 18.4 ± 1.5 µM | 34.4 ± 2.4 µM | 36.8 ± 2.6 µM | 2.6 ± 0.3 µM | – | – | – | MBC [2]: 500 ± 46 µM; Minimum Inhibitory Concentration (MIC) [6]: –; Minimum bactericidal and fungicidal concentrations (MBC, MFC) [6]: –; Minimum Inhibitory Concentration (MIC) [7]: –; Minimum bactericidal and fungicidal concentrations (MBC, MFC) [8]: –; selectivity index (SI) [9, 30]: 4.8; selectivity index (SI) [10, 30]: 1.6; selectivity index (SI) [11, 30]: 277; selectivity index (SI) [12, 30]: 5.0; selectivity index (SI) [13, 29]: ns (ns—no selectivity); selectivity index (SI) [14, 30]: 6.9; selectivity index (SI) [15, 30]: 1.5; selectivity index (SI) [16, 29]: ns (ns—no selectivity); selectivity index (SI) [17, 29]: ns (ns—no selectivity); selectivity index (SI) [18, 30]: 11
4 | CCCCCCCC[P+](c1ccccc1)(c1ccccc1)N(CC)CC [6b, (Diethylamino)(octyl)diphenylphosphonium iodide] | 7.8 ± 0.6 µM | 125 ± 11 µM | 3.9 ± 0.4 µM | 62.5 ± 5.5 µM | 7.8 ± 0.6 µM | 31.3 ± 2.6 µM | 7.8 ± 0.6 µM | 31.3 ± 2.5 µM | 0.95 ± 0.08 µM | 9.5 ± 0.8 µM | 0.2 ± 0.01 µM | 1.3 ± 0.1 µM | 13 ± 1.1 µM | 3.4 ± 0.2 µM | 11.6 ± 0.9 µM | 17.6 ± 1.4 µM | 0.8 ± 0.07 µM | – | – | – | Minimum bactericidal and fungicidal concentrations (MBC, MFC) [2]: –; Minimum Inhibitory Concentration (MIC) [6]: –; Minimum bactericidal and fungicidal concentrations (MBC, MFC) [6]: –; Minimum Inhibitory Concentration (MIC) [7]: –; Minimum bactericidal and fungicidal concentrations (MBC, MFC) [8]: –; selectivity index (SI) [9, 30]: 17; selectivity index (SI) [10, 30]: 1.7; selectivity index (SI) [11, 30]: 81; selectivity index (SI) [12, 30]: 12; selectivity index (SI) [13, 30]: 1.2; selectivity index (SI) [14, 30]: 19; selectivity index (SI) [15, 30]: 5.0; selectivity index (SI) [16, 30]: 1.4; selectivity index (SI) [17, 29]: ns (ns—no selectivity); selectivity index (SI) [18, 30]: 20
5 | CCCCCCCC[P+](c1ccccc1)(N(CC)CC)N(CC)CC [5b, Bis(diethylamino)(octyl)(phenyl)phosphonium iodide] | 7.8 ± 0.6 µM | 250 ± 20 µM | 7.8 ± 0.6 µM | 125 ± 11 µM | 15.6 ± 1.2 µM | 500 ± 48 µM | 15.6 ± 1.2 µM | 250 ± 20 µM | 1.8 ± 0.1 µM | 2.6 ± 0.2 µM | 4 ± 0.3 µM | 1.2 ± 0.1 µM | 20 ± 1.6 µM | 4.3 ± 0.3 µM | 2.9 ± 0.3 µM | 25.6 ± 1.8 µM | 2 ± 0.1 µM | – | – | – | Minimum bactericidal and fungicidal concentrations (MBC, MFC) [2]: –; Minimum Inhibitory Concentration (MIC) [6]: –; MBC [6]: 500 ± 49 µM; MIC ([7]; Pseudomonas aeruginosa): 500 ± 46 µM; Minimum bactericidal and fungicidal concentrations (MBC, MFC) [8]: –; selectivity index (SI) [9, 28]: 2.2; selectivity index (SI) [10, 28]: 1.5; selectivity index (SI) [11, 28]: 1.0; selectivity index (SI) [12, 28]: 3.3; selectivity index (SI) [13, 29]: ns (ns—no selectivity); selectivity index (SI) [14, 29]: ns (ns—no selectivity); selectivity index (SI) [15, 28]: 1.0; selectivity index (SI) [16, 28]: 1.4; selectivity index (SI) [17, 29]: ns (ns—no selectivity); selectivity index (SI) [18, 28]: 2.0
